Read-outs that look alike come from different tables or passages of the source.
How the values were obtained:
[1] = molecular target: WDR5 (Homo sapiens, UniProt P61964); assay: biochemical; assay type: binding
[2] = tested on: MV4:11 human cancer cell lines; assay: Cellular viability / anti-proliferative activity, CellTiter-Glo, 5 day protocol; assay type: cell-based; settings: Homo sapiens, MV4-11, 120 h, read-out: GI50 on cellular proliferation of MV4:11 human cancer cell lines
Method in brief: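 Cells seeded at 200 per well (7200 cells/mL) with compound in 2-fold serial dilutions from 30 μM top (22 points), 0.3% DMSO final. Viability read by CellTiter-Glo luminescence after 5 days; GI50 from sigmoidal dose-response fit, mean of at least two replicates.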

[3] = […], 10mer-Thr-FAM probe 150 nM, Tb-anti-HIS 1 nM, 60 min, room temperature, read-out: Ki for Inhibition of WDR5 by TR-FRET assay
[4] = MV4:11 cells, 5 day incubation, CellTiter-Glo, mean of minimum two replicates

`COc1cc(CN2CCc3c(cc(Cn4ccn(C)c4=N)cc3-c3ccc(F)cc3C)C2=O)cc(OC)c1` [Example 29, 2-(3,5-Dimethoxybenzyl)-5-(4-fluoro-2-methylphenyl)-7-((2-imino-3-methyl-2,3-dihydro-1H-imidazol-1-yl)methyl)-3,4-dihydroisoquinolin-1(2H)-one] was tested, and the Ki [1, 3] was less than 0.05 nM and the GI50 [2] was 63 nM.

`CCn1cc(-c2cc(Cn3ccsc3=N)cc3c2CCN(Cc2cc(C)nn2C)C3=O)c(C(F)(F)F)n1` [Example 106, 2-((1,3-Dimethyl-1H-pyrazol-5-yl)methyl)-5-(1-ethyl-3-(trifluoromethyl)-1H-pyrazol-4-yl)-7-((2-iminothiazol-3(2H)-yl)methyl)-3,4-dihydroisoquinolin-1(2H)-one] showed a Ki ([1]; Ki for Inhibition of WDR5 by TR-FRET assay) of less than 0.05 nM and a GI50 [2] of 182 nM.

Work on `COc1cc(CN2CCc3c(cc(CN4CCCC4=N)cc3-c3cccnc3C(F)(F)F)C2=O)cc(OC)c1` [Example 107, 2-(3,5-Dimethoxybenzyl)-7-((2-iminopyrrolidin-1-yl)methyl)-5-(2-(trifluoromethyl)pyridin-3-yl)-3,4-dihydroisoquinolin-1(2H)-one] yielded a Ki [1, 3] of 0.11 nM.

`COc1cc(CN2CCc3c(cc(CN4CCCC4=N)cc3-c3cn(C)nc3C(F)(F)F)C2=O)cc(OC)c1` [Example 109, 2-(3,5-Dimethoxybenzyl)-7-((2-iminopyrrolidin-1-yl)methyl)-5-(1-methyl-3-(trifluoromethyl)-1H-pyrazol-4-yl)-3,4-dihydroisoquinolin-1(2H)-one] showed a GI50 [2, 4] of 104 nM.

`COc1cc(CN2CCc3c(cc(CN4CCCC4=N)cc3-c3ccc(F)cc3C)C2=O)cc(OC)c1` [Example 113, 2-(3,5-Dimethoxybenzyl)-5-(4-fluoro-2-methylphenyl)-7-((2-iminopyrrolidin-1-yl)methyl)-3,4-dihydroisoquinolin-1(2H)-one] gave a GI50 [2, 4] of 462 nM.

`Cc1cc([C@H](C)N2CCc3c(cc(Cn4ccnc4)cc3-c3cn(C)nc3C(F)(F)F)C2=O)ncc1F` [Example 185, (S)-7-((1H-Imidazol-1-yl)methyl)-2-(1-(5-fluoro-4-methylpyridin-2-yl)ethyl)-5-(1-methyl-3-(trifluoromethyl)-1H-pyrazol-4-yl)-3,4-dihydroisoquinolin-1(2H)-one] gave a GI50 [2, 4] of less than 50 nM.

For `Cc1nccn1Cc1cc2c(c(-c3cn(C)nc3C(F)(F)F)c1)CCN(Cc1cc(Br)ccn1)C2=O` [Example 205, 2-((4-Bromopyridin-2-yl)methyl)-7-((2-methyl-1H-imidazol-1-yl)methyl)-5-(1-methyl-3-(trifluoromethyl)-1H-pyrazol-4-yl)-3,4-dihydroisoquinolin-1(2H)-one], the GI50 [2, 4] was less than 50 nM.

From US11999716B2, “WDR5 inhibitors and modulators” (priority 2018, dated 2024)
